Assay results: PubChem BioAssay AID488867 (Broad Institute, 2010)
Calls of active or inactive are those of the source.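 The calls were made as follows: active = a rising curve with AC50 no higher than ten times the top valid dose of that compound; inconclusive = flat curve between 30 and 70 percent, or failed fit; inactive = the rest.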

Experiment: INS-1E mitochondrial potential loss inhibitors – cell-based, JC-1 fluorescence, dry powder, set 2, dose response (AID 488867)
Details: INS-1E cytokine-induced apoptosis, JC-1 mitochondrial potential, 48 h; at 23.5 µM (top of the series)
With `COc1ccc(S(=O)(=O)N(C)C[C@@H]2Oc3c(NC(=O)C4CCOCC4)cccc3C(=O)N([C@@H](C)CO)C[C@H]2C)cc1` the protection from cytokine-induced depolarization was 3.35% (inactive).
For `Cc1ccc(S(=O)(=O)N(C)C[C@@H]2Oc3c(NC(=O)Nc4cccc5ccccc45)cccc3C(=O)N([C@H](C)CO)C[C@H]2C)cc1`, the protection from cytokine-induced depolarization was 7.94% (inactive).
In the case of `COc1ccc(S(=O)(=O)N(C)C[C@@H]2Oc3c(NC(=O)C4CC4)cccc3C(=O)N([C@@H](C)CO)C[C@H]2C)cc1`, the protection from cytokine-induced depolarization is reported as -7.4% (inactive).
With `C[C@@H]1CN([C@@H](C)CO)C(=O)c2cccc(NC(=O)Nc3cccc4ccccc34)c2O[C@H]1CN(C)C(=O)Nc1ccc(C(F)(F)F)cc1` the protection from cytokine-induced depolarization was 7.29% (inactive).
With `COc1ccc(S(=O)(=O)N(C)C[C@@H]2Oc3c(NS(=O)(=O)c4ccc(C)cc4)cccc3C(=O)N([C@@H](C)CO)C[C@H]2C)cc1` the protection from cytokine-induced depolarization was -2.55% (inactive).

Same assay, conditions: INS-1E cytokine-induced apoptosis, JC-1 mitochondrial potential, 48 h; at 26 µM (top of the series)
In the case of `COc1ccc(S(=O)(=O)N(C)C[C@@H]2Oc3c(NS(C)(=O)=O)cccc3C(=O)N([C@@H](C)CO)C[C@H]2C)cc1`, the protection from cytokine-induced depolarization is reported as -7.47% (inactive).
In the case of `COc1ccc(S(=O)(=O)N(C)C[C@H]2Oc3c(NC(=O)Nc4cccc5ccccc45)cccc3C(=O)N([C@H](C)CO)C[C@H]2C)cc1`, the protection from cytokine-induced depolarization is reported as -8.55% (inactive).
For `C[C@@H]1CN([C@@H](C)CO)C(=O)c2cccc(NC(=O)Nc3ccccc3)c2O[C@H]1CN(C)S(=O)(=O)c1ccc(Cl)cc1`, the protection from cytokine-induced depolarization was 17.7% (inactive).
In the case of `COc1ccc(S(=O)(=O)N(C)C[C@@H]2Oc3c(NC(=O)Nc4cccc5ccccc45)cccc3C(=O)N([C@@H](C)CO)C[C@H]2C)cc1C`, the protection from cytokine-induced depolarization is reported as -8.34% (inactive).
With `C[C@@H]1CN([C@@H](C)CO)C(=O)c2cccc(NC(=O)Nc3cccc4ccccc34)c2O[C@H]1CN(C)CC1CC1` the protection from cytokine-induced depolarization was 10.5% (inactive).
In the case of `COc1ccc(S(=O)(=O)N(C)C[C@@H]2Oc3c(NC(=O)NC4CCCCC4)cccc3C(=O)N([C@@H](C)CO)C[C@H]2C)cc1`, the protection from cytokine-induced depolarization is reported as 7.46% (inactive).
With `Cc1ccc(S(=O)(=O)N(C)C[C@@H]2Oc3c(NC(=O)Nc4ccc(F)cc4)cccc3C(=O)N([C@@H](C)CO)C[C@H]2C)cc1` the protection from cytokine-induced depolarization was 10.4% (inactive).
For `CNC[C@@H]1Oc2c(NC(=O)Nc3cccc4ccccc34)cccc2C(=O)N([C@@H](C)CO)C[C@H]1C`, the protection from cytokine-induced depolarization was 9.02% (inactive).
In the case of `COc1ccc(S(=O)(=O)N(C)C[C@@H]2Oc3c(NC(=O)Nc4ccc(F)cc4)cccc3C(=O)N([C@H](C)CO)C[C@H]2C)cc1`, the protection from cytokine-induced depolarization is reported as 10.8% (inactive).
In the case of `COc1ccc(S(=O)(=O)N(C)C[C@@H]2Oc3c(NC(=O)Nc4cccc5ccccc45)cccc3C(=O)N(C(C)C)C[C@H]2C)cc1`, the protection from cytokine-induced depolarization is reported as 36.6% (inactive).
For `COc1ccc(S(=O)(=O)N(C)C[C@@H]2Oc3c(NC(=O)Nc4cccc5ccccc45)cccc3C(=O)N([C@@H](C)CO)C[C@@H]2C)cc1`, the protection from cytokine-induced depolarization was -0.543% (inactive).
For `COc1ccc(S(=O)(=O)N(C)C[C@@H]2Oc3c(NC(=O)c4ccncc4)cccc3C(=O)N([C@@H](C)CO)C[C@H]2C)cc1`, the protection from cytokine-induced depolarization was -1.06% (inactive).
In the case of `C[C@H]1CN([C@@H](C)CO)C(=O)c2cccc(NC(=O)NC3CCCCC3)c2O[C@@H]1CN(C)S(C)(=O)=O`, the protection from cytokine-induced depolarization is reported as -1.29% (inactive).
For `C[C@@H]1CN([C@H](C)CO)C(=O)c2cccc(NC(=O)Nc3cccc4ccccc34)c2O[C@H]1CN(C)S(=O)(=O)c1ccc(Cl)cc1`, the protection from cytokine-induced depolarization was 4.01% (inactive).
With `N#Cc1ccc2cc(Br)c(C(F)(F)P(=O)(O)O)cc2c1` the protection from cytokine-induced depolarization was -2.22% (inactive).
In the case of `COc1ccc(S(=O)(=O)N(C)C[C@@H]2Oc3c(NS(=O)(=O)c4ccc(Cl)cc4)cccc3C(=O)N([C@@H](C)CO)C[C@H]2C)cc1`, the protection from cytokine-induced depolarization is reported as -6.3% (inactive).
For `C[C@@H]1CN([C@@H](C)CO)C(=O)c2cccc(NC(=O)Nc3cccc4ccccc34)c2O[C@H]1CN(C)C(=O)Nc1ccc(F)cc1`, the protection from cytokine-induced depolarization was 9.03% (inactive).
For `C[C@@H]1CN([C@@H](C)CO)C(=O)c2cccc(NC(=O)Nc3cccc4ccccc34)c2O[C@H]1CN(C)S(=O)(=O)c1cccc(F)c1`, the protection from cytokine-induced depolarization was -9.88% (inactive).
For `COc1ccc(S(=O)(=O)N(C)C[C@@H]2Oc3c(NC(=O)Nc4cccc5ccccc45)cccc3C(=O)N([C@@H](C)CO)C[C@H]2C)cc1F`, the protection from cytokine-induced depolarization was -3.4% (inactive).
With `COc1ccc(S(=O)(=O)N(C)C[C@@H]2Oc3c(NC(=O)Nc4cccc5ccccc45)cccc3C(=O)N([C@H](C)CO)C[C@@H]2C)cc1` the protection from cytokine-induced depolarization was -2.94% (inactive).
In the case of `C[C@@H]1CN([C@@H](C)CO)C(=O)c2cccc(NC(=O)Nc3cccc4ccccc34)c2O[C@H]1CN(C)C(=O)Nc1ccc2c(c1)OCO2`, the protection from cytokine-induced depolarization is reported as -3.61% (inactive).
In the case of `COc1ccc(S(=O)(=O)N(C)C[C@@H]2Oc3c(NS(=O)(=O)c4ccccc4)cccc3C(=O)N([C@@H](C)CO)C[C@H]2C)cc1`, the protection from cytokine-induced depolarization is reported as -2.15% (inactive).
With `COc1ccc(S(=O)(=O)N(C)C[C@@H]2Oc3c(NC(=O)c4cccc5ccccc45)cccc3C(=O)N([C@@H](C)CO)C[C@H]2C)cc1` the protection from cytokine-induced depolarization was 4.73% (inactive).
In the case of `C[C@@H]1CN([C@H](C)CO)C(=O)c2cccc(NC(=O)Nc3ccccc3)c2O[C@H]1CN(C)S(=O)(=O)c1ccc(F)cc1`, the protection from cytokine-induced depolarization is reported as 4.78% (inactive).
With `COc1ccc(S(=O)(=O)N(C)C[C@@H]2Oc3c(NC(=O)c4ccc(-c5nccs5)cc4)cccc3C(=O)N([C@@H](C)CO)C[C@H]2C)cc1` the protection from cytokine-induced depolarization was -3.02% (inactive).
For `C[C@@H]1CN([C@@H](C)CO)C(=O)c2cccc(NC(=O)Nc3cccc4ccccc34)c2O[C@H]1CN(C)S(=O)(=O)c1ccccc1F`, the protection from cytokine-induced depolarization was -16.5% (inactive).
In the case of `C[C@@H]1CN([C@H](C)CO)C(=O)c2cccc(NC(=O)Nc3ccccc3)c2O[C@H]1CN(C)S(=O)(=O)c1ccc(Cl)cc1`, the protection from cytokine-induced depolarization is reported as 15.6% (inactive).
In the case of `COc1ccc(S(=O)(=O)N(C)C[C@@H]2Oc3c(NC(=O)Nc4c(C)noc4C)cccc3C(=O)N([C@@H](C)CO)C[C@H]2C)cc1`, the protection from cytokine-induced depolarization is reported as 2.03% (inactive).
For `COc1ccc(S(=O)(=O)N(C)C[C@@H]2Oc3c(NC(=O)c4cc(C)nn4C)cccc3C(=O)N([C@@H](C)CO)C[C@H]2C)cc1`, the protection from cytokine-induced depolarization was 1.8% (inactive).
With `C[C@@H]1CN([C@@H](C)CO)C(=O)c2cccc(NC(=O)Nc3cccc4ccccc34)c2O[C@H]1CN(C)S(=O)(=O)c1ccc2c(c1)OCO2` the protection from cytokine-induced depolarization was 32.4% (inactive).
With `C[C@@H]1CN([C@@H](C)CO)C(=O)c2cccc(NC(=O)Nc3ccc(F)cc3)c2O[C@H]1CN(C)S(=O)(=O)c1ccc(F)cc1` the protection from cytokine-induced depolarization was 11.7% (inactive).
For `C[C@@H]1CN([C@@H](C)CO)C(=O)c2cccc(NC(=O)Nc3cccc4ccccc34)c2O[C@H]1CN(C)S(=O)(=O)c1ccc(F)cc1`, the protection from cytokine-induced depolarization was 4.49% (inactive).
For `Cc1noc(C)c1NC(=O)N(C)C[C@@H]1Oc2c(NC(=O)Nc3cccc4ccccc34)cccc2C(=O)N([C@@H](C)CO)C[C@H]1C`, the protection from cytokine-induced depolarization was 12.1% (inactive).
In the case of `COc1ccc(S(=O)(=O)N(C)C[C@@H]2Oc3c(NC(=O)Nc4cccc5ccccc45)cccc3C(=O)N([C@@H](C)CO)C[C@H]2C)c(OC)c1`, the protection from cytokine-induced depolarization is reported as 11.3% (inactive).
In the case of `COc1ccc(S(=O)(=O)N(C)C[C@@H]2Oc3c(NC(=O)Nc4cccc5ccccc45)cccc3C(=O)N([C@@H](C)CO)C[C@H]2C)cc1Cl`, the protection from cytokine-induced depolarization is reported as -12% (inactive).
For `C[C@@H]1CN([C@@H](C)CO)C(=O)c2cccc(NC(=O)Nc3cccc4ccccc34)c2O[C@H]1CN(C)S(C)(=O)=O`, the protection from cytokine-induced depolarization was 2.48% (inactive).
With `COc1ccc(S(=O)(=O)N(C)C[C@@H]2Oc3c(NS(=O)(=O)c4cn(C)cn4)cccc3C(=O)N([C@@H](C)CO)C[C@H]2C)cc1` the protection from cytokine-induced depolarization was -9.04% (inactive).
For `C[C@@H]1CN([C@@H](C)CO)C(=O)c2cccc(NC(=O)Nc3ccccc3)c2O[C@H]1CN(C)S(=O)(=O)c1ccc(F)cc1`, the protection from cytokine-induced depolarization was 7.91% (inactive).
With `COc1ccc(S(=O)(=O)N(C)C[C@@H]2Oc3c(NC(=O)Nc4ccc(C(F)(F)F)cc4)cccc3C(=O)N([C@@H](C)CO)C[C@H]2C)cc1` the protection from cytokine-induced depolarization was -7.36% (inactive).
For `C[C@@H]1CN([C@@H](C)CO)C(=O)c2cccc(NC(=O)Nc3cccc4ccccc34)c2O[C@H]1CN(C)S(=O)(=O)c1cn(C)cn1`, the protection from cytokine-induced depolarization was 6.5% (inactive).
For `C[C@@H]1CN([C@@H](C)CO)C(=O)c2cccc(NC(=O)Nc3cccc4ccccc34)c2O[C@H]1CN(C)S(=O)(=O)c1ccccc1`, the protection from cytokine-induced depolarization was 8.02% (inactive).
In the case of `C[C@@H]1CN([C@@H](C)CO)C(=O)c2cccc(NS(=O)(=O)c3ccccc3)c2O[C@H]1CN(C)Cc1ccc(C(F)(F)F)cc1`, the protection from cytokine-induced depolarization is reported as -2.49% (inactive).
In the case of `C[C@@H]1CN([C@@H](C)CO)C(=O)c2cccc(NC(=O)Nc3cccc(Cl)c3Cl)c2O[C@H]1CN(C)S(=O)(=O)c1ccc2c(c1)OCCO2`, the protection from cytokine-induced depolarization is reported as 8.05% (inactive).
With `C[C@@H]1CN([C@@H](C)CO)C(=O)c2cccc(NC(=O)Nc3cccc4ccccc34)c2O[C@H]1CN(C)S(=O)(=O)c1ccc2c(c1)oc(=O)n2C` the protection from cytokine-induced depolarization was -5.34% (inactive).
With `C[C@@H]1CN([C@@H](C)CO)C(=O)c2cccc(NC(=O)Nc3ccc(F)cc3)c2O[C@H]1CN(C)S(=O)(=O)c1ccc(Cl)cc1` the protection from cytokine-induced depolarization was 8.02% (inactive).
In the case of `COc1ccc(S(=O)(=O)N(C)C[C@@H]2Oc3c(NC(=O)c4nc5ccccc5s4)cccc3C(=O)N([C@@H](C)CO)C[C@H]2C)cc1`, the protection from cytokine-induced depolarization is reported as -8.58% (inactive).
For `COc1ccc(S(=O)(=O)N(C)C[C@@H]2Oc3ccc(NC(=O)Nc4cccc5ccccc45)cc3C(=O)N([C@@H](C)CO)C[C@H]2C)cc1`, the protection from cytokine-induced depolarization was -12% (inactive).
In the case of `COc1ccc(NC(=O)N(C)C[C@@H]2Oc3c(NC(=O)Nc4cccc5ccccc45)cccc3C(=O)N([C@@H](C)CO)C[C@H]2C)cc1`, the protection from cytokine-induced depolarization is reported as 0.86% (inactive).
For `COc1ccc(S(=O)(=O)N(C)C[C@@H]2Oc3c(NC(=O)Nc4ccc5c(c4)OCO5)cccc3C(=O)N([C@@H](C)CO)C[C@H]2C)cc1`, the protection from cytokine-induced depolarization was 4.22% (inactive).
